Test results taken from ChEMBL document CHEMBL1145332, “Design of inhibitors of orotidine monophosphate decarboxylase using bioisosteric replacement and determination of inhibition kinetics” (J Med Chem, 2006).
pKi: −log10 of the molar value.

Biological target: T1, Orotidine 5'-phosphate decarboxylase (Saccharomyces cerevisiae S288c, UniProt P03962)
T1 sequence (P03962 whole entry): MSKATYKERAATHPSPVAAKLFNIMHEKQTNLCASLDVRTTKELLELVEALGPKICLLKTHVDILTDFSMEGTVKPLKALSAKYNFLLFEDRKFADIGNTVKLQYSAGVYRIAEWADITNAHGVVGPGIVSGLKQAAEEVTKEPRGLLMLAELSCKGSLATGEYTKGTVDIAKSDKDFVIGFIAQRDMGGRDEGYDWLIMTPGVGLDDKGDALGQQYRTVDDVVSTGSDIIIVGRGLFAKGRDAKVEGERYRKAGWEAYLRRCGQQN
Test: Inhibition of Saccharomyces cerevisiae ODCase at 25 degreeC by competitive binding assay

O=c1cnn([C@@H]2O[C@H](COP(=O)(O)O)[C@@H](O)[C@H]2O)c(=O)[nH]1 [6-AZA-URIDINE MONOPHOSPHATE]
pKi: 7.19
